Experimental data taken from EP1209147A1, “CARBOXYLIC ACID DERIVATIVES AND ADHESION MOLECULE INHIBITORS CONTAINING THE SAME AS THE ACTIVE INGREDIENT” (TORAY INDUSTRIES, INC., priority 1999, dated 2001).

How the values were obtained:
superoxide = experiment: Radical scavenger action (superoxide from xanthine and xanthine oxidase); type: biochemical; details: luminescence at 380 nm, 10 to 60 seconds after xanthine oxidase addition
Procedure: The radical scavenger action of the compounds was measured using the amount of the superoxide as an index, which is produced when xanthine and xanthine oxidase are reacted. First, 1 mM of xanthine (SIGMA) dissolved in Hanks buffer solution (GIBCO), 2 mM dietylenetriamine-N,N,N',N"-pentaacetic acid (DOJIN) and 40 µM 2-methyl-6-phenyl-3,7-dihydroimidazo[1,2-a]pyrazin-3-one (TOKYO KASEI KOGYO) dissolved in distilled water when use were mixed. Further, 0.3 U/ml xanthine oxidase (BMY) dissolved in Hanks buffer when use was added. Luminescence intensity at 380 nm from 10 seconds to 60 seconds after the addition was measured by Lumat (Berthold, LB9501), and the measured amount was defined as the amount of produced superoxide. The test compound was added to the xanthine-containing solution before addition of the xanthine oxidase, and the resulting mixture was preincubated at 25°C for 5 minutes to examine its influence.

[1] = system: Jurkat cells (ATCC TIB-152); experiment: Influence on cell survival rate (alamarBlue); type: cell-based; details: cultured 24 hours with compound
Procedure: Jurkat cells (ATCC TIB-152) passaged on 10% fetal calf serum-containing RPMI medium (10F-RPMI, GIBCO) were suspended in the same medium to a cell population of 5 x 10^5 cells/ml, and the suspension was placed in each well of a 96-well plate (COSTAR) in an amount of 100 µl/well, followed by culturing the cells at 37°C under 5% CO2 for 24 hours. Then alamarBlue®(BioSource) was added in an amount of 10 µl/well and the cells were cultured for another 4 hours. Thereafter, the absorbance at 570 nm and 600 nm was measured with a microplate reader (BioRad model 3550). The test compound dissolved in 10F-RPMI was mixed with the Jurkat cells and the cells were cultured for 24 hours to examine its influence.

Mouse Asthma Model = experiment: Mouse asthma model (OVA/Alum sensitization, OVA inhalation, airway anaphylaxis and BALF eosinophils); type: in vivo, BLAB/c mouse; details: at a dose of not more than 150 mg/kg, topically or systemically
Procedure: A mixed solution containing aluminum hydroxide gel (Alum) on which ovalbumin (hereinafter "OVA") was adsorbed (20 ∝g OVA/2mg Alum/200 ∝l physiological saline) was intraperitoneally administered to each BLAB/c mouse (female, 7 weeks old, JAPAN CHARLES RIVER) at a dose of 200 ∝l ([…]) per time on DAY-1 and DAY-14 to sensitize the mouse. Then each mice was made to aspire 2% OVA dissolved in physiological saline on DAY-28, 29 and 30 to induce inflammation. Compound Nos. 143 and 236 used as the test compounds were dissolved in physiological saline and each solution was topically or systemically administered at 30 minutes before induction by OVA, and twice a day after induction.
On DAY-31, development of airway anaphylaxis was measured using a non-restrictive chamber (BUXCO). Then the bronchus of each mouse was incised and the bronchus and alveoli were washed (BAL) with 0.7 ml of physiological saline. After the washing, the washing fluid (BALF) of the bronchus and alveoli was recovered and centrifuged. The leukocytes contained in the BALF were subjected to site spin to prepare a smear specimen. After staining the specimen by May-Giemsa staining method, the leukocytes were grouped and counted under microscope to determine the number of eosinophils. The experiment was carried out using 6 to 8 mice in each group. The results are shown in terms of mean ± standard error.

Row | Structure (SMILES) | radical scavenger activities relative to 3-(4-((2,6-dichlorophenyl)carbonylamino)phenyl)-2-((6-bromo-2-methylphenyl)carbonylamino)propanoic acid (superoxide) | influences on the survival rate of the cells relative to 3-(4-((2,6-dichlorophenyl)carbonylamino)phenyl)-2-((6-bromo-2-methylphenyl)carbonylamino)propanoic acid [1] | accumulation of eosinophils to the lung (Mouse Asthma Model; BALF on DAY-31) | progress of airway anaphylaxis (Mouse Asthma Model; DAY-31)
1 | O=C(Nc1ccn(C[C@H](NC(=O)c2c(Cl)cccc2Cl)C(=O)O)c(=O)n1)c1c(Cl)cccc1Cl [Example 236, (2S)-2-((2,6-dichlorophenyl)carbonylamino)-3-(4-((2,6-dichlorophenyl)carbonylamino)-2-oxohydropyrimidinyl)propionic acid] | 2 to 5 times | not more than 1/4 | inhibited | inhibited
2 | Cc1cccc(Br)c1C(=O)N[C@@H](Cn1ccc(NC(=O)c2c(Cl)cccc2Cl)nc1=O)C(=O)O [Example 240, (2S)-3-(4-((2,6-dichlorophenyl)carbonylamino)-2-oxohydropyrimidinyl)-2-((2-bromo-6-methylphenyl)carbonylamino)propionic acid] | 2 to 5 times | not more than 1/4 | – | –
